Results from patent publication US20100196462A1, “Method for Manufacturing a Pharmaceutical Form of Oseltamivir Phosphate” (priority 2006, published 2010).

Test: Density of the oseltamivir phosphate active ingredient before densification (pharmacotechnical tests)
Type: physicochemical
Conditions: active ingredient as received, without densification

density: approximately 0.1 g/cm^3
SMILES: CCOC(=O)C1=C[C@@H](OC(CC)CC)[C@H](NC(C)=O)[C@@H](N)C1 [oseltamivir phosphate]
